PMC9841576, “Characterisation of C101248: A novel selective THIK-1 channel inhibitor for the modulation of microglial NLRP3-inflammasome” (Neuropharmacology, 2023)
pIC50: −log10 of the molar value.

Experiments:
[1] = target: T1, THIK-1 (Homo sapiens, UniProt Q9HB14); assay: Q-Patch automated electrophysiology, HEK-hTHIK-1 cells; assay type: cell-based
T1 construct: expressed in transfected cells
T1 sequence (Q9HB14 1-408): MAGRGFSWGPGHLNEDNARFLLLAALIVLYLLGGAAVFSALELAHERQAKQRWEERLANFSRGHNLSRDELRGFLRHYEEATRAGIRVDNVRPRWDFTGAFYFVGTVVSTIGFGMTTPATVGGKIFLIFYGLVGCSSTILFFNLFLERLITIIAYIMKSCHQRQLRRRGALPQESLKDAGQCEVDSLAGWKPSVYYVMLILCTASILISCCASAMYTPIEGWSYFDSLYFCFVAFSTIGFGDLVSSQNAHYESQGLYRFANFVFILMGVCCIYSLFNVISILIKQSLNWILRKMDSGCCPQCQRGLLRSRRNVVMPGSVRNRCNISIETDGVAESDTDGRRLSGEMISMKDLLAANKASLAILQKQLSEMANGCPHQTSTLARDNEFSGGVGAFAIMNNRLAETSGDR
Experimental: HEK-293 cells were transfected with human THIK-1, TREK-1, TWIK-2, or mouse THIK-1 cDNA cloned into pcDNA3.1, using either Fugene HD transfection reagent (Promega) or electroporation (MaxCyte STX instrument). Cells stably expressing the relevant genes were selected based on resistance to 500 μg/ml geneticin (Gibco). For human THIK-1 and TWIK-2 expressing cells, monoclonal lines were isolated by limited dilution cloning; mouse THIK-1 and human TREK-1 expressing cells were maintained as polyclonal pools. The HEK-293 pools and monoclones stably expressing the relevant genes were maintained in DMEM (Life Technologies), supplemented with 10% FCIII (HyClone, Fetal clone III) and 500 μg/ml geneticin. A CHO-Kv2.1 cell line was purchased from Millipore (accession NM_004975) and maintained in F12 (Life Technologies), supplemented with 10% FCSIII (Thermo Scientific) and 500 μg/ml geneticin (Life Technologies). For thallium flux assays, banks of frozen cell aliquots were prepared the day prior to assay, cells were thawed into media and seeded into PDL coated 384-well plates (Corning) at 25,000 (human/mouse THIK-1, TREK-1) or 30,000 (TWIK-2) cells/well (25 μl/well). CHO-Kv2.1 cells were seeded into non-PDL coated plates (Corning) at 5000 cells/well. […]
THIK-1 mediated currents were measured using the Q-Patch 48 automated electrophysiology platform (Sophion, Denmark). […]

[2] = target: T1, THIK-1; assay: Thallium flux functional wash-off assay, HEK-hTHIK-1 cells; assay type: cell-based
Experimental: A fluorescence-based thallium influx assay (Molecular Devices potassium assay kit) was used to monitor channel activity. In brief, component A was reconstituted in 17 ml of chloride-free assay buffer (130 mM sodium D-gluconate, 5 mM potassium D-gluconate, 2 mM calcium D-gluconate, 1 mM magnesium D-gluconate, 5 mM NaHCO3, 20 mM HEPES; pH adjusted to 7.4 with NaOH and filtered (0.45 μm filter)) and component C reconstituted in 30 μl of DMSO. Components A and C were combined, and probenecid was added (Life Technologies; final assay concentration (FAC) 4.75 mM for HEK cell lines and 2.47 mM for CHO-Kv2.1) to provide the final dye solution. Media was removed from the cell plates and replaced with dye (20 μl/well) and the plates were incubated at room temperature in the dark for 60 min. On the day of the assay, a diluted compound plate (3x FAC in 1.5% DMSO) was created. Control wells contained either DMSO vehicle (1.5%, 3x FAC) or tetrapentylammonium chloride (TPA; Sigma, 258962; 1.5 mM in 1.5% DMSO, 3x FAC). A 3x thallium stimulation plate was also prepared, to provide a FAC of either 1 mM (human THIK-1) or 3 mM (mouse THIK-1, TREK-1, TWIK-2) thallium sulphate (in assay buffer). For Kv2.1, the FAC of thallium sulphate was 2.6 mM and this was prepared in assay buffer containing potassium sulphate (Sigma P9458; FAC 23.3 mM). Following 60 min of dye loading, 10 μl from the 3x FAC compound plate was added into the cell plate, which was then incubated for 15 min at room temperature in the dark. Using a fluorescent imaging plate reader (FLIPR) tetra plate reader, 15 μl thallium stimulus solution was added to the cell plate and the fluorescence signal recorded every second for 1 min (excitation: 470–495 nm, emission: 515–575 nm).
For the functional wash-off assay, plates were tested in parallel that were run as standard (no wash) with plates that had undergone an additional assay buffer wash and incubation period following compound addition. Briefly, after a 15 min compound incubation, plates were either moved to the FLIPR for immediate thallium addition (standard) or the plates were washed with assay buffer to remove compound solutions (50 μl/well addition and removal), 30 μl/well assay buffer added and the plates incubated for 60 min, followed by thallium addition on the FLIPR (60 min wash).

maximum inhibition (Q-Patch) ([1]; HEK-hTHIK-1): 94%
pIC50 ([1]; HEK-hTHIK-1, step to +40 mV, normalised to TPA, read-out: IC50, inhibition of basal currents (Q-Patch)): 6.83
Hill slope (nH) ([2]; 60 min wash): 0.54
maximum inhibition (60 min wash) ([2]; 60 min wash): 93%
lower potency after 60 min wash-off compared to standard format ([2]; 60 min wash vs no wash): 3.4 fold
pIC50 ([2]; compound removed, 60 min incubation in buffer before thallium, read-out: IC50 (60 min wash)): 7.02
Hill slope (nH) ([2]; no wash): 1.3
maximum inhibition (no wash) ([2]; no wash): 101%
pIC50 ([2]; standard format, 15 min compound incubation, immediate thallium addition, read-out: IC50 (no wash)): 7.55
SMILES: Nc1nonc1-c1nc2ccccc2n1Cc1ccncc1 [C101248]
